# Source: patent publication US20220008449A1, “A METHOD OF MIMICKING BENEFITS OF DIETARY RESTRICTION BY TRANSIENTLY UPREGULATING ER STRESS RESPONSE” (NATIONAL INSTITUTE OF IMMUNOLOGY, priority 2018, published 2022)
# Entries after “also recorded” stand apart in the source; their conditions may differ.
# How the values were obtained:
# Type in all cases: in vivo, Caenorhabditis elegans
# C. elegans = assay: Adult life span after transient (first 24 h) Tm or 2DG supplementation
# Experimental: Gravid adult worms, initially grown on E. coli OP50 were bleached and eggs were hatched on different RNAi plates. On reaching adulthood, 50-60 young adult worms were transferred to the similar RNAi plates in triplicates and overlaid with Fluoro-deoxyuridine (FudR) to final concentration of 0.1 mg/ml of agar (2). At the 7th Day of adulthood, sick, sluggish and slow dwelling worms were removed from the life span population and the remaining were considered as the number of subjects ‘N’. Following this, number of dead worms were scored every alternate day and plotted as % survival against the number of days. Statistical analysis for survival was conducted using Mantel-Cox Log Rank test using Oasis software. Average life span was also determined using the same method and represented as Mean life span±Standard Error Mean (S.E.M).
# Overnight grown bacterial culture expressing Control or test RNAi were re-inoculated in 200 ml fresh LB media and grown at 37° C. until OD600 reached 0.5-0.6. The culture was divided in two parts (A and B) in a ratio of 1:3 and cells are pelleted separately using a centrifuge (4810R, Eppendorf, Germany) at 5000 r.p.m for 10 minutes at 4° C. Pellet from part B (150 ml) of the culture was resuspended in 1×M9 buffer containing 100 μg/ml ampicillin and 1 mM IPTG to 1/10th of its initial culture volume (for 150 ml culture, 15 ml of resuspension buffer was used) and 350 μl was seeded onto each RNAi plate and left for drying at room temperature for 24 hours.
# Gravid adult worms initially grown on E. coli OP50 bacteria were bleached and eggs were re-suspended in 100-200 ul of 1×M9 buffer and standardized for the number of eggs present in a particular volume.
# Entire composition of cocktail (total volume 1 ml) is mentioned as follows:
# Eggs were left on rotation in this cocktail at a slow speed for 24 hrs. […] They were allowed to grow till adulthood when 100 worms belonging to each treatment regime were transferred onto FuDR containing RNAi plates and life span was scored as mentioned above. iUPR^ER efficiency was also measured on Day 2 of adulthood, as mentioned previously.
# Since transient up-regulation of UPR^ER was observed, experiments were conducted to see its causal role in life span extension, as observed during DR. […] After the pharmaceutical reagent was washed off, the worms were grown on solid NGM media and post-adult life span was recorded. […] This observation supports the role of hormesis, triggered by an early ER stress as a mechanism of DR-mediated life span enhancement, in the models that were tested.
# Phsp-4:gfp(zcIs4) worms = assay: Induced UPR^ER (iUPR^ER) efficiency, Phsp-4:gfp fluorescence after acute Tm challenge in adulthood; settings: for iUPR^ER at adulthood after Tm hormesis: acute 5 mg/mL tunicamycin treatment, day 2 of adulthood
# Experimental: Transgenic Phsp-4:gfp(zcIs4) and eat-2(ad1116);Phsp-4:gfp(zcIs4) were bleached and eggs were hatched on control RNAi. Worms were allowed to grow till adulthood and then transferred onto plates overlaid with FuDR to a final concentration of 0.1 mg/ml. […] Since Tm is dissolved in 0.05% DMSO, it was used as vehicle control. After 6 hours, 50 worms from each treatment were mounted onto 2% agarose slides and visualized using Axio-Imager M2 epifluorescent microscope with a GFP filter set (Carl Zeiss, Germany) Fluorescence of ≥20 Tm-treated and untreated worms was quantified using NIH ImageJ software. Average fluorescence of treated worms was normalized to untreated worms and plotted as normalized GFP fold induction at different days of adulthood. Similar procedure was followed to compare iUPR^ER efficiency of Phsp-4:gfp(zcIs4) on control and drl-1 RNAi on different days of adulthood.
# Eggs were left on rotation in this cocktail at a slow speed for 24 hrs. Following this, the hatched L1 larvae were washed 3-4 times with 1×M9 buffer to remove traces of tunicamycin and added onto seeded control RNAi or test RNAi plates containing no reagent. They were allowed to grow till adulthood when 100 worms belonging to each treatment regime were transferred onto FuDR containing RNAi plates and life span was scored as mentioned above. iUPR^ER efficiency was also measured on Day 2 of adulthood, as mentioned previously.
# Since it was observed that transient ER stress using Tm at early post-embryonic stage increased life span, it was tested whether this treatment could also lead to a better iUPR^ER efficiency with age. […] Importantly, hormetic up-regulation of the ER stress response during early developmental life leads to this increased ER efficiency contributing towards enhanced longevity during DR.
# [1] = system: Punc-54:polyQ40:yfp worms; assay: PolyQ aggregate number in adult worms after transient Tm exposure
# Excerpt: In order to evaluate the role of DR in augmenting the ERAD and its physiological consequences, a reporter was used that expresses a stretch of 40 glutamines (Q40) tagged with a yellow fluorescent protein in C. elegans muscle. This reporter strain was crossed with eat-2(ad1116) mutant worms to generate worms carrying both the reporter transgene and the eat-2 mutation (hereafter, referred to as eat-2;PolyQ). It was observed that incorporating eat-2 mutation led to 60-80% suppression in the number of aggregates at all age points, supporting the earlier observation of alleviation in the age-associated increase in PolyQ aggregation during DR (FIG. 6A). […] Since ire-1 was a requirement for DR-mediated longevity, it was tested whether this beneficial effect conferred under DR is also dependent on this gene.
# It was reported that an atypical up-regulation of UPR^ER in larvae contributes towards increased life span during DR. It was shown that pharmaceutically mimicking the transient UPR^ER up-regulation during early larval life augmented the iUPR^ER efficiency with age and increased life span. To determine whether such hormetic intervention can protect against the age-related proteostasis collapse, WT worms were exposed with a range of concentrations of Tm only during the start of larval development, as mentioned before. […]
compound,measurement,setting,value
"O=CC[C@@H](O)[C@H](O)[C@H](O)CO [2-DG, 2-deoxy glucose]",Effect on life span,"C. elegans; WT, transient 2DG 0.0625 mM first 24 hours",increased; also recorded: significantly increasing life span
same,Life span Mean ± SEM,"C. elegans; Wild type, 2-DG 0.0625 mM for first 24 hours",21.21 ± 0.37 days
same,Life span % Change,"C. elegans; Wild type, 2-DG 0.0625 vs 0 mM",11.69%
same,Life span Mean ± SEM,"C. elegans; ire-1(v33), 2-DG 0.0625 mM for first 24 hours",20.07 ± 0.26 days
same,Life span % Change,"C. elegans; ire-1(v33), 2-DG 0.0625 vs 0 mM",−0.64%
same,Effect on life span,"C. elegans; ire-1(v33), transient 2DG treatment",failed to increase life span; also recorded: ire-1-dependent manner
Tunicamycin [Tm],Effect on life span,"C. elegans; WT larvae, 0.125 μg/ml Tm during first 24 hours",sufficient to extend lifespan; also recorded: significant extension of life span
same,Dependence of Tm hormesis life span extension on PHA-4,"C. elegans; WT on control or pha-4 RNAi, Tm 0.125 μg/mL initial 24 h",suppressed; also recorded: dependent on PHA-4
same,Dependence of Tm life span effect on ire-1,"C. elegans; WT vs ire-1(v33), Tm 0.125 μg/ml initial 24 hours",completely dependent on ire-1
same,Life span Mean ± SEM,"C. elegans; Wild type (for eat-2 hormesis expt), Tm 0.125 μg/ml for first 24 hours",21.58 ± 0.36 days
same,Life span % Change,"C. elegans; Wild type (for eat-2 hormesis expt), Tm 0.125 vs 0 μg/ml",15.83%
same,Life span Mean ± SEM,"C. elegans; Wild type (for ire-1 hormesis expt), Tm 0.125 μg/ml for first 24 hours",22.02 ± 0.30 days
same,Life span % Change,"C. elegans; Wild type (for ire-1 hormesis expt), Tm 0.125 vs 0 μg/ml",18.83%
same,Life span Mean ± SEM,"C. elegans; Wild type, Tm 0.125 μg/ml for first 24 hours",21.73 ± 0.28 days
same,Life span % Change,"C. elegans; Wild type, Tm 0.125 vs 0 μg/ml",17.78%
same,Life span Mean ± SEM,"C. elegans; eat-2 (ad1116), Tm 0.125 μg/ml for first 24 hours",25.32 ± 0.45 days
same,Life span % Change,"C. elegans; eat-2 (ad1116), Tm 0.125 vs 0 μg/ml",−10.47%
same,Effect on life span,"C. elegans; eat-2(ad1116), Tm supplementation",cannot further increase lifespan
same,Life span Mean ± SEM,"C. elegans; ire-1(v33), Tm 0.125 μg/ml for first 24 hours",18.64 ± 0.21 days
same,Life span % Change,"C. elegans; ire-1(v33), Tm 0.125 vs 0 μg/ml",−0.85%
same,iUPR^ER at adulthood after Tm hormesis,Phsp-4:gfp(zcIs4) worms; control RNAi worms,even higher iUPR^ER
same,iUPR^ER at adulthood after Tm hormesis,Phsp-4:gfp(zcIs4) worms; pha-4 RNAi worms,not able to increase the iUPR^ER response
same,iUPR^ER efficiency at day 2 of adulthood,"Phsp-4:gfp(zcIs4) worms; transient Tm 24 hours post-bleaching, challenge Tm 10 μg/ml for 6 hours on day 2",increases iUPR^ER efficiency; also recorded: higher iUPR^ER efficiency
same,Number of polyQ aggregates,"[1]; Punc-54:polyQ40:yfp on control RNAi, 0.125 μg/ml and 0.25 μg/ml Tm during larval development, day 2 and day 3 of adulthood",suppression; also recorded: significant reduction in the number of aggregates
same,Number of polyQ puncta,[1]; ire-1(v33);Q40:yfp worms treated with hormetic dose of Tm (0.125 μg/ml),significantly higher puncta at all age points
